Measurements reported in publication PMC12405493, “Selective ubiquitination of drug-like small molecules by the ubiquitin ligase HUWE1” (Nature Communications, 2025).
Values belong to the compound of their own block, whether it stands above or below them.

What was measured:
HEK293T WT cells = assay: Click chemistry-based detection of compound ubiquitination in cell lysates; set-up: species or system human; conditions: for Compound ubiquitination in cells (click chemistry, cell lysates): HEK293T WT, 10 μM or 20 μM
Experimental: Cell lysate-based applications: HEK293T WT or HUWE1 KO cells at ~70% confluency on a 10-cm dish were treated with 10 μM or 20 μM BI8626 derivative 6, 7 or 8 for the indicated times. As indicated in the results section, derivative 8 yielded slightly stronger signal than 6 and was thus used for analyses of the prerequisites of cellular small-molecule ubiquitination. Treatment with 1 μM TAK243 (MedChemExpress) or 10 μM MLN4924 (Sigma-Aldrich) was performed for 1 h, prior to derivative 8 administration. Cells were collected with ice-cold 1 x DPBS, centrifugated, and the cell pellet was resuspended in 300 μL sodium phosphate buffer (pH 7.0) (Jena Bioscience), supplemented with 1% (v/v) NP-40, 3 M urea, 10 mM NEM, 50 μM PR-619, 10 μM MG-132 and protease-phosphatase inhibitor cocktail. After 20 min rotating at 4 °C, the lysate was cleared by centrifugation, the total protein concentration determined with a Pierce BCA Protein Assay Kit, the sample diluted to ~7.5 μg μL^−1 and supplemented with 5 μM IRDye 800CW Azide (LI-COR), a mixture of 2 mM CuSO4/10 mM THPTA (Jena Bioscience) and 100 mM sodium ascorbate. The click chemistry reaction was performed in the dark at 37 °C, shaking at 300 rpm. After 1 h, the reaction was quenched with 40 mM EDTA, diluted 1.2-fold with 10 mM Tris (pH 7.5), 150 mM NaCl and 0.5 mM EDTA. 25 μL Ubiquitin-Trap Magnetic Agarose beads (Proteintech) were added, the mixture was rotated at 4 °C for 80 min, the resin washed 3 x with 10 mM Tris (pH 7.5), 150 mM NaCl, 0.05% (v/v) NP-40, 0.5 mM EDTA and 3 M urea, following protein elution in 40 μL of 1.5 x SDS-loading dye at 95 °C for 5 min. 10 μL were subjected to SDS-PAGE and analyzed by fluorescence scanning (Odyssey CLx; LI-COR) and Coomassie staining.

HUWE1^HECT [1] = target: T1, HUWE1^HECT (Homo sapiens, UniProt Q7Z6Z7); assay: HUWE1^HECT multi-turnover ubiquitination reactions (fluorescent Ub tracer, SDS-PAGE); type: biochemical; conditions: 20 μM compound
T1 construct: the isolated HECT domain of HUWE1 (HUWE1^HECT); made in house
T1 sequence (Q7Z6Z7 4038-4374 limits assumed): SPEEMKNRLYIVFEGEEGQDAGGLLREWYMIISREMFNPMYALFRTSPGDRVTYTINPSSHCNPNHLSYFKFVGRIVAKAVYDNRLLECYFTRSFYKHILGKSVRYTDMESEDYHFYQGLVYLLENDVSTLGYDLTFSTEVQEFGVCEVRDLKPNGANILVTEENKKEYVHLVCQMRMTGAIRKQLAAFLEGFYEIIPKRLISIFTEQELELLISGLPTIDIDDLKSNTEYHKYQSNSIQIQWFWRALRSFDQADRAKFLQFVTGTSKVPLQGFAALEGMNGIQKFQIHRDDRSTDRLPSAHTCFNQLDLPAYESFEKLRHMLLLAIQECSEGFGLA
Experimental: (§1) HUWE1^HECT multi-turnover ubiquitination reactions were performed for 30 minutes (unless stated otherwise) with 200 nM UBA1, 5 μM UBE2L3 or UBE2D3 (as specified), 1 μM HUWE1^HECT and 30 μM Ub in 25 mM HEPES (pH 7.5), 100 mM NaCl, 3 mM MgCl2, and 0.5 mM TCEP. HUWE1^FL multi-turnover ubiquitination reactions included 50 nM UBA1, 2.5 μM UBE2L3, 0.05 μM HUWE1^FL, 0.5 μM MCL1 (or 0.5 μM H2B or 1 μM FOXP3) and 20 μM Ub in 20 mM HEPES (pH 7.5), 100 mM NaCl, 3 mM MgCl2, and 0.5 mM TCEP. All multi-turnover reactions were started by the addition of 1 mM ATP, incubated at 30 °C, quenched with SDS-loading dye. If not stated otherwise, HUWE1^FLautoubiquitination reactions were incubated for 20 minutes. Substrate ubiquitination reactions with MCL1 or H2B were incubated for 10 and 20 min, respectively; those with FOXP3 for 30 min. Those reactions that were monitored by fluorescence contained a fluorescent Ub tracer (IRDye 800CW maleimide; LI-COR)[55] and were monitored using an Odyssey CLx scanner (LI-COR), followed by Coomassie staining. In the fluorescence images, only those marker bands are labeled (in kDa) that are visible by fluorescence; all marker bands are labeled in the Coomassie-stained images. Statistical analyses were performed with Prism 9 v.9.3.1 (GraphPad).

HUWE1^HECT [2] = target: T2, HUWE1^HECT (Homo sapiens, UniProt Q7Z6Z7); assay: Analytical SEC / intact protein MS of HUWE1^HECT-driven compound ubiquitination; type: biochemical; conditions: 20 μM compound; + ATP; WT Ub
T2 construct: the isolated HECT domain of HUWE1 (HUWE1^HECT); made in house
T2 sequence (Q7Z6Z7 3993-4374): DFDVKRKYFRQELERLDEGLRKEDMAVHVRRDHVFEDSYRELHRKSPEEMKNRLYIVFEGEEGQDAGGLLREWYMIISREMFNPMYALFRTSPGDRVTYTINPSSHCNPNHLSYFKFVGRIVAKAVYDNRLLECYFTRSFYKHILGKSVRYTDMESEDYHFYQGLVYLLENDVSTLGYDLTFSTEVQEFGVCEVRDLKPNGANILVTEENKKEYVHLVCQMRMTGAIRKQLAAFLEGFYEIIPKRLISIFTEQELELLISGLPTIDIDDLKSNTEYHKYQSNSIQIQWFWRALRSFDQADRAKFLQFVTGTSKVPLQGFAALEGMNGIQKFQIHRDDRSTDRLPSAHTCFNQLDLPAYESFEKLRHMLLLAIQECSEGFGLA
Experimental: HUWE1^HECT multi-turnover ubiquitination reactions were performed with 500 nM UBA1, 5 μM UBE2L3, 5 μM HUWE1^HECT and 100 μM Ub in 20 mM HEPES (pH 7.5), 100 mM NaCl and 0.5 mM TCEP in the presence of 1 mM ATP and 3 mM MgCl2. After 15 min incubation at 30 °C, the mixture was injected into a Superdex 75 Increase 3.2/300 column (Cytiva), equilibrated in 25 mM HEPES (pH 7.5), 100 mM NaCl, and 0.5 mM TCEP at 4 °C. Chromatograms were analyzed and peaks integrated with Unicorn v.7.9.02440 (Cytiva). Data were plotted with Prism v.9.3.1 (GraphPad).
Intact protein LC/MS: protein molecular weights (MWs) were determined by LC/MS on a nanoflow chromatography system (Dionex U3000 nanoRSLC), hyphenated to a hybrid quadrupole/orbitrap mass spectrometer (Q Exactive HF) with a NanoFlex ion source and controlled by Xcalibur v.2.4 (all Thermo Fisher Scientific). Proteins were dissolved in 2% (v/v) acetonitrile (ACN), 0.1% (v/v) formic acid (FA) to a concentration of 100 fmol μL^−1. For each analysis, 500 fmol were enriched on a pre-column (0.15 ×20 mm, Reprosil-Pur120 C18-AQ 5 μm; Dr. Maisch GmbH) and separated on an analytical RP-C18 column (0.075 mm×200 mm, Reprosil-Pur 120 C18-AQ; 1.9 μm, Dr. Maisch GmbH), using a 23-min linear gradient of 10–80% (v/v) ACN/0.1% (v/v) FA at 300 nl min^−1. MS data were acquired in full MS mode across the 500–1800 m/z-range at a resolution setting of 120,000 FWHM, an AGC target of 1*10e6 and a maximum fill time of 200 ms. Charge state deconvolution and MW representation were performed in Freestyle v.1.9 (Thermo Fisher Scientific), using default settings for high-resolution data.

HUWE1^FL [3] = target: T3, HUWE1^FL (Homo sapiens, UniProt Q7Z6Z7); assay: HUWE1^FL multi-turnover ubiquitination reactions without protein substrate (autoubiquitination, free Ub chains); type: biochemical; conditions: for Inhibition by derivatives modified at the piperazine-linked benzyl moiety: Supplementary Fig. 18c, d
T3 construct: made in house; host or cells: HEK293T (transient transfection, anti-Flag purification, SEC)
T3 sequence (Q7Z6Z7 whole entry): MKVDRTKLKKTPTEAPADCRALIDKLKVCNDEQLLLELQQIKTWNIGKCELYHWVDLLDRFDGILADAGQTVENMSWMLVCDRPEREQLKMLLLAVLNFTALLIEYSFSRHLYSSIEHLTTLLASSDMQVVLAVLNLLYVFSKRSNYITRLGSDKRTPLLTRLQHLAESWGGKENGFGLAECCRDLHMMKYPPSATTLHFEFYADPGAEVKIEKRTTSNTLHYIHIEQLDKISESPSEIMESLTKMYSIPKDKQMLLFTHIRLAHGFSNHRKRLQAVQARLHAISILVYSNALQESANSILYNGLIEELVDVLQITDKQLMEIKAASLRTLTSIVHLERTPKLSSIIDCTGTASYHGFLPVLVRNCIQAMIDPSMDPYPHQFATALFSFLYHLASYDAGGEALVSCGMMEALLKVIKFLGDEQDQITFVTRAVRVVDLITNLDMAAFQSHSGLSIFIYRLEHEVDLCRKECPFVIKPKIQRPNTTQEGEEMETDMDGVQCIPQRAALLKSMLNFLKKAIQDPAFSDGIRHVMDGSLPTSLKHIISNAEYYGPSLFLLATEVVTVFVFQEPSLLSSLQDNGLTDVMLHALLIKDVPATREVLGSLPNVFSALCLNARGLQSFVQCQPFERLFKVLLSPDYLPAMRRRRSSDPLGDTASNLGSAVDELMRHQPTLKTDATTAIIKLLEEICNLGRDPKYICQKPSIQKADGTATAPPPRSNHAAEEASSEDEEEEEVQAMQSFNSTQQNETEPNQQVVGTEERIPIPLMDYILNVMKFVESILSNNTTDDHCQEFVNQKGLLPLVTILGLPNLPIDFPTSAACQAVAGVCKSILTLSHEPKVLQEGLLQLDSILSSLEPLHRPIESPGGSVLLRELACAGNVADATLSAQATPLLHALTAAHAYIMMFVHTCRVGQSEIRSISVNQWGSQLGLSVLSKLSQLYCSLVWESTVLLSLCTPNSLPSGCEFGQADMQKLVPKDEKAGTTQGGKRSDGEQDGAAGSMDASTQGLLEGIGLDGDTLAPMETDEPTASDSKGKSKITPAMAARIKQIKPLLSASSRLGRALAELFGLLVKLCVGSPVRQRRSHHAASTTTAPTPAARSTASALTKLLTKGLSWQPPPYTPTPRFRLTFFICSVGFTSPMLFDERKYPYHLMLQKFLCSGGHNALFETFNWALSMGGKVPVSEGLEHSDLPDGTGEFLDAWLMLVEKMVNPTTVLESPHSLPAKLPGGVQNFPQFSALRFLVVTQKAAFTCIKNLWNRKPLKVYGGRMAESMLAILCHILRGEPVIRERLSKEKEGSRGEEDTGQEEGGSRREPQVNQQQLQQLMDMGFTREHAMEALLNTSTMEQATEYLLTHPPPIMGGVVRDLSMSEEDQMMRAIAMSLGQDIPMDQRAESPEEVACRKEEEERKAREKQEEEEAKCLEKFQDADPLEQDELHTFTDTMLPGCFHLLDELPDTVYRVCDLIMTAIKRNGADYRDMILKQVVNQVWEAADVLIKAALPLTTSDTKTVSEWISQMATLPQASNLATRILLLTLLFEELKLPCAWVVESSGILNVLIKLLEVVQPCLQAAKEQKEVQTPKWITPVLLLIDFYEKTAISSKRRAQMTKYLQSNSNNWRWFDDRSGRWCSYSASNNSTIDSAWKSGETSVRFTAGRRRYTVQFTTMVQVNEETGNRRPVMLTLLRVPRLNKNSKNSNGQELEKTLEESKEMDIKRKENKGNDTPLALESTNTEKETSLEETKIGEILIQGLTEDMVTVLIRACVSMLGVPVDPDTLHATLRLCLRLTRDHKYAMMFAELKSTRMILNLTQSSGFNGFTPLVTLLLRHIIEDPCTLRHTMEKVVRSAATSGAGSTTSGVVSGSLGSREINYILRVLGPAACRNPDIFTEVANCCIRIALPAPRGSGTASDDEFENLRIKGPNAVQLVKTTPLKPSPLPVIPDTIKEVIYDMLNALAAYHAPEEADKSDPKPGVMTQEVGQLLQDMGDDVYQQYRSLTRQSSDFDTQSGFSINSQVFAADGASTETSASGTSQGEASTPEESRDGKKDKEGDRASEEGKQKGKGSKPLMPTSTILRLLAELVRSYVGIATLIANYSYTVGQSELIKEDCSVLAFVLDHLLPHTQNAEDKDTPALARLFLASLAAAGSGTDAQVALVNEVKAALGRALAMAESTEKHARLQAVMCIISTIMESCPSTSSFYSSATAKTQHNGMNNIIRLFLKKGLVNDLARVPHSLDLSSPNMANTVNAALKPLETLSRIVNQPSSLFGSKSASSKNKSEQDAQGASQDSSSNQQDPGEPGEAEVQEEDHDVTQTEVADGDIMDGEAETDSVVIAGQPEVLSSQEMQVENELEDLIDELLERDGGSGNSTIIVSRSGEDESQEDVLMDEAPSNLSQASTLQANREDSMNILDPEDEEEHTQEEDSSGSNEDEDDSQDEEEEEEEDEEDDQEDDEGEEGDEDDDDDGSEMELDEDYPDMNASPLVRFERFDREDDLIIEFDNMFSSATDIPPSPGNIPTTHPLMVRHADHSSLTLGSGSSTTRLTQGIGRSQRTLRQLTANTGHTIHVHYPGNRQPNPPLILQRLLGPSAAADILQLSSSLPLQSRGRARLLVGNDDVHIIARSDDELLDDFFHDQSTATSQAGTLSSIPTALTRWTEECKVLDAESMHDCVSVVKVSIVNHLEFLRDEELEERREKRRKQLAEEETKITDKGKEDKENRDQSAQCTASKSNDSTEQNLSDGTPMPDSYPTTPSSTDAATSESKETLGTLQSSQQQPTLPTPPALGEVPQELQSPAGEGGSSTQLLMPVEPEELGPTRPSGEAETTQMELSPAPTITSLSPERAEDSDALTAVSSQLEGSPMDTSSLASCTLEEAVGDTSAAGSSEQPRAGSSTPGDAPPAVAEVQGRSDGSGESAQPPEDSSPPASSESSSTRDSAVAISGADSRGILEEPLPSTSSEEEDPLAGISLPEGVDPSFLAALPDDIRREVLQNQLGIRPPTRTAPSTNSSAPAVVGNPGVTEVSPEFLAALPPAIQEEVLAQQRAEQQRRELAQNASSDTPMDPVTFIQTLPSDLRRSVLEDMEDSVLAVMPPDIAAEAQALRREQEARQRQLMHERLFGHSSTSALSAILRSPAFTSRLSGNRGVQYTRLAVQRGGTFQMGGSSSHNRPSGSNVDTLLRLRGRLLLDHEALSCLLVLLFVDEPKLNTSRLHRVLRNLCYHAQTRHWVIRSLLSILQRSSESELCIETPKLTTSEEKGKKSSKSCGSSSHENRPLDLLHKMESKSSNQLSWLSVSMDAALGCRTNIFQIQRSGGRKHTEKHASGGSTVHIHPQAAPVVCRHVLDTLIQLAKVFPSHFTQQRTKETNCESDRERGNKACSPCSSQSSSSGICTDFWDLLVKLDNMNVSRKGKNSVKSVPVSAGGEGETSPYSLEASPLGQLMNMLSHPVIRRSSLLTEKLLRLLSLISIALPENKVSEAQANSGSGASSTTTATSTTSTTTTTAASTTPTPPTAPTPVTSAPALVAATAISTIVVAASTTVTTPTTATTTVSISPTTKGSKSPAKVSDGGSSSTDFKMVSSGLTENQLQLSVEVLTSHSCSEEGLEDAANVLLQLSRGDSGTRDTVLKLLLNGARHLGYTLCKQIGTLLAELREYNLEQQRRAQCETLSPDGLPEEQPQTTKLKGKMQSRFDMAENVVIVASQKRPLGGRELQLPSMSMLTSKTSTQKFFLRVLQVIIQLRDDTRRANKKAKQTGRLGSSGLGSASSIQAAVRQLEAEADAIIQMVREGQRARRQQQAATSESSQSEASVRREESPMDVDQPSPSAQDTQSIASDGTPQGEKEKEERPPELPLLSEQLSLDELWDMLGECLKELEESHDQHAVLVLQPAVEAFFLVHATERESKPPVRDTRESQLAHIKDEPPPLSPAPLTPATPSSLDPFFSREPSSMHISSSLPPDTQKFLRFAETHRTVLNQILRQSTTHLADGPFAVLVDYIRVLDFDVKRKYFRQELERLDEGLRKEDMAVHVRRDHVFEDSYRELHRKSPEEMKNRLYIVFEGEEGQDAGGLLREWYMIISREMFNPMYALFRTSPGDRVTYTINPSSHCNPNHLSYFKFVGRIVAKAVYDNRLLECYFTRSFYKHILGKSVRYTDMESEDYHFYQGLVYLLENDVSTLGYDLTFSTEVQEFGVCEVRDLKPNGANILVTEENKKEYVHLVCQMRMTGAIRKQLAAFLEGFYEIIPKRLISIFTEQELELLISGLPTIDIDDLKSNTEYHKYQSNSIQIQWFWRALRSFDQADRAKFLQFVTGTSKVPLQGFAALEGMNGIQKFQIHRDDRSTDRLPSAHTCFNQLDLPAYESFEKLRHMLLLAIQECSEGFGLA
Experimental: as §1

HUWE1^FL [4] = target: T3, HUWE1^FL; assay: Click chemistry-based detection of compound ubiquitination by HUWE1^FL in vitro; type: biochemical
Experimental: In vitro applications: Multi-turnover ubiquitination reactions were performed with 50 nM UBA1, 2.5 μM UBE2L3, 50 nM HUWE1^FL and 20 μM Ub in 20 mM HEPES (pH 7.5), 100 mM NaCl, 0.5 mM TCEP, and 20 μM derivative 6 or 7 ± 0.5 μM MCL1 at 30 °C for 10 min. The reactions were started by addition of 1 mM ATP/3 mM MgCl2 and quenched with 3 M urea. Click-chemistry labeling was performed by incubation of the samples with 20 μM IRDye 800CW Azide Infrared Dye (LI-COR), 5 mM CuSO4, 10 mM THPTA and 50 mM sodium ascorbate for 60 min at 37 °C in the dark, following by quenching with 40 mM EDTA. Following SDS-PAGE, the gels were fixed in 10% acetic acid and 30% ethanol for 2 ×15 min and washed in water overnight.

HEK293T HUWE1 KO cells = assay: Click chemistry-based detection of compound ubiquitination in HUWE1 knock-out cells (± HUWE1 overexpression); type: cell-based, human
Experimental: The protocol for CRISPR/Cas9-mediated HUWE1-knockout in HEK293T cells was previously described. In short, two sgRNAs were cloned separately into pX330-U6-Chimeric_BB-CBh-hSpCas9 (a gift from Feng Zhang; http://n2t.net/addgene:42230; RRID:Addgene_42230)[68] and pSpCas9(BB)−2A-GFP (PX458) (a gift from Feng Zhang; http://n2t.net/addgene:48138; RRID:Addgene_48138)[69]. Transfections were performed with Lipofectamine LTX (Thermo Fisher Scientific), single cells FACS-seeded into 96-well plates, and clones derived from single cells screened for HUWE1 deficiency by sequencing and immunoblotting.
Transient transfections of HA-tagged HUWE1^FL WT and C4341S (Fig. 5g) were performed in antibiotic-free and FBS-free media using Lipofectamine 3000 (Thermo Fisher Scientific). 6 h post transfection the media was exchanged to media supplemented with antibiotics and FBS. 24 h post transfection cells were treated with 10 μM or 20 μM BI8626 derivative 8 for 1 h and then collected.
Cell lysate-based applications: HEK293T WT or HUWE1 KO cells at ~70% confluency on a 10-cm dish were treated with 10 μM or 20 μM BI8626 derivative 6, 7 or 8 for the indicated times. As indicated in the results section, derivative 8 yielded slightly stronger signal than 6 and was thus used for analyses of the prerequisites of cellular small-molecule ubiquitination. Treatment with 1 μM TAK243 (MedChemExpress) or 10 μM MLN4924 (Sigma-Aldrich) was performed for 1 h, prior to derivative 8 administration. […] After 20 min rotating at 4 °C, the lysate was cleared by centrifugation, the total protein concentration determined with a Pierce BCA Protein Assay Kit, the sample diluted to ~7.5 μg μL^−1 and supplemented with 5 μM IRDye 800CW Azide (LI-COR), a mixture of 2 mM CuSO4/10 mM THPTA (Jena Bioscience) and 100 mM sodium ascorbate. […] 10 μL were subjected to SDS-PAGE and analyzed by fluorescence scanning (Odyssey CLx; LI-COR) and Coomassie staining.

SMILES: NS(=O)(=O)OC[C@@H]1C[C@@H](n2ccc3c(N[C@H]4CCc5ccccc54)ncnc32)C[C@@H]1O [MLN4924]
- Effect on cell-based ubiquitination of derivative 8 (HEK293T WT cells; 10 μM MLN4924 for 1 h prior to derivative 8): does not markedly affect derivative 8 ubiquitination

SMILES: NS(=O)(=O)OC[C@H]1C[C@@H](Nc2ccnc3cc(-c4cccc(SC(F)(F)F)c4)nn23)[C@H](O)[C@@H]1O [TAK243]
- Effect on cell-based ubiquitination of derivative 8 (HEK293T WT cells; 1 μM TAK243 for 1 h prior to derivative 8): markedly reduced

SMILES: NCc1ccc(CNc2ncnc3c(N4CCN(Cc5ccccc5)CC4)ncnc23)cc1 [derivative 1, N-(4-(aminomethyl)benzyl)−8-(4-benzylpiperazin-1-yl)pyrimido[5,4-d]pyrimidin-4-amine]
- HUWE1^HECT inhibition (autoubiquitination) by BI8626 derivatives (HUWE1^HECT [1]): retained HUWE1^HECT inhibition
- Compound ubiquitination by HUWE1^HECT (SEC, intact protein MS) (HUWE1^HECT [2]): efficiently ubiquitinated
- Inhibition of HUWE1^FL by BI8626 derivatives (HUWE1^FL [3]; 20 μM, without protein substrate and with MCL1 (Fig. 4c, d)): also inhibited

More lines, main results first:

- Inhibition by derivatives modified at the piperazine-linked benzyl moiety (HUWE1^FL [3]): maintains considerable inhibition
SMILES: CN1CCN(c2ncnc3c(NCc4cccc(CN)c4)ncnc23)CC1 [derivative 5, N-(3-(aminomethyl)benzyl)−8-(4-methylpiperazin-1-yl)pyrimido[5,4-d]pyrimidin-4-amine]

- Inhibition by derivatives modified at the piperazine-linked benzyl moiety (HUWE1^FL [3]): preserved inhibition to a similar extent
SMILES: C#CCCCN1CCN(c2ncnc3c(NCc4cccc(CN)c4)ncnc23)CC1 [derivative 6, N-(3-(aminomethyl)benzyl)−8-(4-(pent-4-yn-1-yl)piperazin-1-yl)pyrimido[5,4-d]pyrimidin-4-amine]
- Compound ubiquitination by HUWE1^FL, click-chemistry fluorescence (HUWE1^FL [4]; 20 μM compound, 10 min, ATP-dependent): fluorescent signals corresponding to the mono- and diubiquitinated forms
- MCL1 ubiquitination (immunoblotting) with increasing compound (HUWE1^FL [4]; varying concentrations of derivative 6 and MCL1): decreased as the compound modification increased
- Compound ubiquitination in cells (click chemistry, cell lysates) (HEK293T WT cells): Both mono- and polyubiquitinated forms of derivatives 6 and 8 were detected

- Inhibition by derivatives modified at the piperazine-linked benzyl moiety (HUWE1^FL [3]): preserved inhibition to a similar extent
SMILES: C#CCN1CCN(c2ncnc3c(NCc4cccc(CN)c4)ncnc23)CC1 [derivative 8, N-(3-(aminomethyl)benzyl)−8-(4-(prop-2-yn-1-yl)piperazin-1-yl)pyrimido[5,4-d]pyrimidin-4-amine]
- Compound ubiquitination in cells (click chemistry, cell lysates) (HEK293T WT cells): Both mono- and polyubiquitinated forms of derivatives 6 and 8 were detected
- Compound ubiquitination in HUWE1 knock-out cells (HEK293T HUWE1 KO cells; HEK293T HUWE1 KO vs WT): still detected in this context, albeit at slightly reduced levels
- Compound ubiquitination upon overexpression of WT HUWE1 (not catalytically inactive variant) (HEK293T HUWE1 KO cells; HEK293T HUWE1 KO, transient transfection): enhances compound ubiquitination
- Share of total compound ubiquitination signal that endogenous HUWE1 accounts for (HEK293T HUWE1 KO cells; HEK293T WT vs HUWE1 KO, all species (8-Ub, 8-Ub2, 8-Ubn)): ≤ 25%
